This note sets out measurements from patent US6323369A, “Substituted cycloheptenes, their preparation and use” (Gruenenthal GmbH, priority 1998, dated 2001).

Where a name gives a salt, the structure may show the parent alone.

One experiment addresses T1, δ-opiate receptor (Rattus norvegicus, UniProt P33533).
T1 construct: performed in brain membrane homogenates; from tissue; host or cells: rat brain without cerebellum, pons and medulla oblongata, male Wistar rats (membrane homogenate)
Description: δ-opiate receptor bonding test ((3H)-2-D-ala-deltorphin II displacement). Format: binding, rat (male Wistar). The note with it: rat brain membrane homogenate, 1 nmol/l (3H)-2-D-ala-deltorphin II, 90 min at 37° C., pH 7.4; mean ± standard deviation of 3 independent trials. The method, then:
Tests on determining the affinity of compounds of the formula I according to the invention for the δ-opiate receptor were performed in brain membrane homogenates (homogenate from rat brain without the cerebellum, pons and medulla oblongata from male Wistar rats). In this case, freshly prepared rat brain was homogenised each time, cooled by ice, in 50 mmol/l of tris-HCl (tris-(hydroxymethyl)-aminomethane hydrochloride) (pH 7.4) and centrifuged for 10 min at 5,000 g and 4° C. After decanting and discarding the supernatant liquid, the membrane sediment was again taken up in 50 mmol/l of tris-HCl (pH 7.4) and homogenised and the homogenate was then centrifuged for 20 min at 20,000 g and 4° C. This wash stage was repeated once more. Then the supernatant liquid was decanted and the membrane sediment was homogenised in cold 50 mmol/l tris-HCl, 20% glycerol (w:v), 0.01% bacitracin (w/v) (pH 7.4) and frozen in portions until tested. For the receptor bonding tests, the portions were thawed out and diluted 1:10 with the bonding test buffer. A 50 mmol/l tris-HCl, 5 mmol/l MgCl2 (pH 7.4) supplemented with 0.1% (w:v) of bovine serum albumin was used as buffer, and 1 nmol/l of (^3 H)-2-D-ala-deltorphin II was used as a radioactive ligand in the bonding test. The proportion of non-specific bonding was determined in the presence of […] of naloxon. In further batches, the compounds according to the invention were added in a number of concentrations and the displacement of the radioactive ligand from its specific bond was determined. Three identical batches were incubated for 90 min at 37° C. and then harvested in order to determine the radioactive ligand bonded to the membrane homogenate by means of filtration through a glass fibre filter (GF/B). The radioactivity of the glass fibre filter discs was measured in a beta-counter by adding a scintillator. The affinity of compounds according to the invention for the δ-opiate receptor was calculated as IC50 in accordance with the law of mass action using non-linear regression. The K values in table 1 are given as the average value plus or minus the standard deviation of 3 quite independent trials.

For experiment [1], the system named is phenylquinone-induced writhing in mice. Description: Anti-nociceptive activity in phenylquinone-induced writhing test in mice. The class given is in vivo, mouse (male NMRI). Particulars: Mus musculus, iv, 10 min; i.v., phenylquinone i.p. 10 min after compound, writhing counted 5-20 min after phenylquinone; 10 animals per dose; 95% confidence range in parentheses. The protocol:
The anti-nociceptive effectiveness was tested in phenylquinone-induced writhing in mice, modified by I. C.Hendershot, J. Forsaith, J. Pharmacol. Exp. Ther. 125, 237-240 (1959). Here, male NMRI mice with a weight of 25-30 g were used. 10 min after intravenous administration of a compound according to the invention, 0.3 ml/mouse of a 0.02% strength aqueous solution of phenylquinone was administered intraperitoneally to groups of 10 animals per substance dose (phenylbenzoquinone, Sigma, Deisenhofen; solution prepared by adding 5% ethanol and storing in a water bath at 45° C.). The animals were placed individually in observation cages. Using a push button counter,the number of pain-induced stretching movements (so-called writhing reactions=straightening the body while stretching out the back extremities) was counted 5-20 min after administration of the phenylquinone. From the dose-dependent decrease in writhing reactions as compared with groups of animals tested in parallel to which no compounds according to the invention had been administered, the ED50 values for the writhing reaction were calculated using regression analysis (evaluation programme Martens EDV service, Eckental).
For orientation: Writhing tests count abdominal constrictions after an irritant is injected.

T1 sequence (P33533 whole entry): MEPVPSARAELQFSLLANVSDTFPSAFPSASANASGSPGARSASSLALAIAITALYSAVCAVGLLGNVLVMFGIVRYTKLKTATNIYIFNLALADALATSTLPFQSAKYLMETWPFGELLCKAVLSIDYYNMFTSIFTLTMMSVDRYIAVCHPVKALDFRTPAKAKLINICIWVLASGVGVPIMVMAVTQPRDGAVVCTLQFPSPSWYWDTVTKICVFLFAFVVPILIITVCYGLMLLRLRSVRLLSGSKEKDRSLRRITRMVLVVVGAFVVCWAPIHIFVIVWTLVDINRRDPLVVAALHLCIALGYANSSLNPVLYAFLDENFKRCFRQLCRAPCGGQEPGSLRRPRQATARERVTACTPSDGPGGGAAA

`CN(C)CC1=C(c2cccc(O)c2)CC(c2cccc(O)c2)CCC1.Cl` (stereo not drawn) [Example 1, 3-[2-dimethylaminomethyl-6-(3-hydroxyphenyl)-cyclohept-1-enyl]-phenol hydrochloride]: at δ-opiate receptor, the affinity, expressed as Ki, was 1.4 ± 0.8 nM. In addition, the ED50 in experiment [1] was found to be 3.31 mg/kg.
For `CN(C)CC1=C(c2cccc(O)c2)CC(c2ccc(Cl)cc2)CCC1.Cl` (stereo not drawn) [Example 2a, 3-[6-(4-chlorophenyl)-2-dimethylaminomethyl-cyclohept-1-enyl]-phenol hydrochloride], in that order: 30.3 ± 4.7 nM and 7.4 mg/kg.
`CN(C)CC1=C(c2cccc(O)c2)CC(c2ccccc2)CCC1.Cl` (stereo not drawn) [Example 2b, 3-(2-dimethylaminomethyl-6-phenyl-cyclohept-1-enyl)-phenol hydrochloride] registered a Ki on δ-opiate receptor of 3.8 ± 0.2 nM. In addition, in experiment [1], the ED50 was 4.48 mg/kg.
For `CN(C)CC1=C(c2cccc(O)c2)CC(c2cccc3ccccc23)CCC1.Cl` (stereo not drawn) [Example 2c, 3-(2-dimethylaminomethyl-6-naphth-1-yl-cyclohept-1-enyl)-phenol hydrochloride], the affinity at δ-opiate receptor corresponds to a Ki of 24.7 ± 2.4 nM. Moreover, the ED50 in experiment [1] was 5.29 mg/kg.
As to `CN(C)CC1=C(c2cccc(O)c2)CC(c2ccc3ccccc3c2)CCC1.Cl` (stereo not drawn) [Example 2d, 3-(2-dimethylaminomethyl-6-naphth-2-yl-cyclohept-1-enyl]-phenol hydrochloride], affinity at δ-opiate receptor was put at a Ki of 31.5 ± 5.9 nM. Besides, the 50% effective dose (ED50) in experiment [1] came out at 7.56 mg/kg.
`CN(C)CC1=C(c2cccc(O)c2)CC(c2ccc(O)cc2)CCC1.Cl` (stereo not drawn) [Example 2e, 3-[2-dimethylaminomethyl-6-(4-hydroxyphenyl)-cyclohept-1-enyl]-phenol hydrochloride] yielded a Ki at δ-opiate receptor of 15.2 ± 4.3 nM. Besides, in experiment [1], the ED50 was 2.25 mg/kg.
Consider `Cc1cccc(C2CCCC(CN(C)C)=C(c3cccc(O)c3)C2)c1` (stereo not drawn) [Example 2f, 3-(2-dimethylaminomethyl-6-m-toluyl-cyclohept-1-enyl]-phenol hydrochloride], for which the Ki on δ-opiate receptor was 3.2 ± 0.8 nM.
The same measure, in the same setting: as for `CN(C)CC1=C(c2cccc(O)c2)CC(c2cccc(C(C)(C)C)c2)CCC1` (stereo not drawn) [Example 2g, 3-[6-(3-tert-butyl-phenyl)-2-dimethylaminomethyl-cyclohept-1-enyl]-phenol hydrochloride], the figure is 17.5 ± 5.2 nM.
Molecule `CN(C)CC1=C(c2cccc(O)c2)CC(c2ccc3cc(O)ccc3c2)CCC1` (stereo not drawn) [Example 2h, hydrochloride] gave a Ki at δ-opiate receptor of 19.4 ± 4.7 nM. Besides, the ED50 in experiment [1] was found to be 6.22 mg/kg.
For `CN(C)CC1=C(c2cccc(O)c2)CC(c2ccc(O)c(F)c2)CCC1.Cl` (stereo not drawn) [Example 2i, 3-[2-dimethylaminomethyl-6-(3-fluoro-4-hydroxyphenyl)-cyclohept-1-enyl]-phenol hydrochloride], in that order: 14.6 ± 2.2 nM and 0.89 mg/kg.
`CN(C)CC1=C(c2cccc(O)c2)CC(c2ccccc2O)CCC1` (stereo not drawn) [Example 2j, 3-[2-dimethylaminomethyl-6-(2-hydroxyphenyl)-cyclohept-1-enyl]-phenol hydrochloride]: the Ki on δ-opiate receptor was 24.7 ± 3.1 nM.
In turn, `CN(C)CC1=C(c2cccc(O)c2)CC(C2CCCCC2)CCC1` (stereo not drawn) [Example 2k, 3-(6-cyclohexyl-2-dimethylaminomethyl-cyclohept-1-enyl)-phenol hydrochloride] gave a Ki at δ-opiate receptor of 10.3 ± 2.2 nM.
As to `CN(C)CC1=C(c2cccc(O)c2)CC(CC2CCCCC2)CCC1` (stereo not drawn) [Example 2l, 3-(6-cyclohexylmethyl-2-dimethylaminomethyl-cyclohept-1-enyl)-phenol hydrochloride], the affinity on δ-opiate receptor corresponds to a Ki of 28.6 ± 5.8 nM.
Still for that read-out and setting: as for `CN(C)CC1=C(c2cccc(O)c2)CC(Cc2ccccc2)CCC1` (stereo not drawn) [Example 2m, 3-(6-benzyl-2-dimethylaminomethyl-cyclohept-1-enyl)-phenol hydrochloride], the figure is 10.2 ± 1 nM.
As for `CN(C)CC1=C(c2cccc(O)c2)CC(Cc2cccc(O)c2)CCC1` (stereo not drawn) [Example 2n, 3-[2-dimethylaminomethyl)-6-(3-hydroxybenzyl)-cyclohept-1-enyl]-phenol hydrochloride], at δ-opiate receptor, the inhibition constant (Ki) is 7.4 ± 2.2 nM.
On the same count and under the same terms, as for `CN(C)CC1=C(c2cccc(O)c2)CC(CCc2ccccc2)CCC1` (stereo not drawn) [Example 2o, 3-(2-dimethylaminomethyl-6-phenethyl-cyclohept-1-enyl)-phenol hydrochloride], the figure is 30.6 ± 10.5 nM; as for `Cc1cc(C2CCCC(CN(C)C)=C(c3cccc(O)c3)C2)cc(C)c1O` (stereo not drawn) [Example 2p, 3-[2-dimethylaminomethyl)-6-(3,5-dimethyl-4-hydroxyphenyl)-cyclohept-1-enyl]-phenol hydrochloride], 2.5 nM.
Take `CN(CCc1ccccc1)CC1=C(c2cccc(O)c2)CC(c2ccccc2)CCC1.Cl` (stereo not drawn) [Example 3, 3-{2-[(methylphenethylamino)-methyl]-6-phenyl-cyclohept-1-enyl}-phenol hydrochloride]: on δ-opiate receptor, the affinity corresponds to a Ki of 8.3 ± 3.3 nM. Also, in experiment [1], the ED50 was found to be 3.4 mg/kg.

By Ki is commonly meant the equilibrium dissociation constant of an inhibitor or competing ligand from its target. By ED50 is commonly meant the midpoint of the dose-response relation.
